# Values quoted from earlier work in patent publication US9182414B2, “Methods for identifying a GLP-1 secretagogue” (Arena Pharmaceuticals, Inc., priority 2005, dated 2015).
# Square brackets hold non-standard residues; d marks the D form. Peptide text beside a SMILES is read from it. * marks the point of attachment. NHPhenethyl = c1ccc(CCN*)cc1; Nphe = O=C(O)CNCc1ccccc1; PhAc = O=C(Cc1ccccc1)*; βAla = NCCC(=O)O
# Biological target: T1, BRS-3 (Homo sapiens, UniProt P32247)
# T1 sequence (P32247 1-399): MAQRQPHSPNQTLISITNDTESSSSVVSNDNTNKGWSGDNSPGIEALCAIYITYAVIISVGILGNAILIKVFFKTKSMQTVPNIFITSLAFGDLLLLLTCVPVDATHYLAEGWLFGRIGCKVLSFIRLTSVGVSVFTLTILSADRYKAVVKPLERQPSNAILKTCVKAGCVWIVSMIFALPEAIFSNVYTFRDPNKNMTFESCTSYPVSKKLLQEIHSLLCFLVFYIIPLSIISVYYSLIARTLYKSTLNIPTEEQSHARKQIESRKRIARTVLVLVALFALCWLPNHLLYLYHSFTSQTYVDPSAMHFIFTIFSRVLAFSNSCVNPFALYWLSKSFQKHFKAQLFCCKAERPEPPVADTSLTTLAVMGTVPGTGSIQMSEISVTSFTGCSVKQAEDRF
# Conditions: BRS-3 over GRP-R and NMB-R; description taken from literature
row,Molecule,selectivity as BRS-3 agonist
1,"NC(=O)CC[C@H](NC(=O)CCc1ccc(Cl)cc1)C(=O)N[C@H](Cc1c[nH]c2ccccc12)C(=O)NCCc1ccccc1 [Compound 1, N1-{(1R)-2-(1H-3-Indolyl)-1-[1-(2-phenylethyl)carbamoyl]ethyl}-(2S)-2-[1-(2-(4-chlorophenyl)ethyl)carboxamido]pentanediamide]",selective BRS-3 agonists
2,"NC(=O)CC[C@H](NC(=O)Cc1cc2ccccc2[nH]1)C(=O)N[C@H](Cc1c[nH]c2ccccc12)C(=O)NCCc1ccccc1 [Compound 2, N1-{(1R)-2-(1H-3-Indolyl)-1-[1-(2-phenylethyl)carbamoyl]ethyl}-(2S)-2-[(1H-2-indolylmethyl)carboxamido]pentanediamide]",selective BRS-3 agonists
3,"C[C@H](NC(=O)Cc1ccccc1)C(=O)N[C@H](Cc1c[nH]c2ccccc12)C(=O)NCCc1ccccc1 [Compound 3, N1-(2-Phenylethyl)-(2R)-2-{[(1S)-1-(benzylcarboxamido)ethyl]carboxamido}-3-(1H-3-indolyl)propanamide] (PhAc-Ala-[dW]-NHPhenethyl)",selective BRS-3 agonists
4,"C[C@H](NC(=O)Cc1ccc(Cl)cc1)C(=O)N[C@H](Cc1c[nH]c2ccccc12)C(=O)NCCc1ccccc1 [Compound 4, N1-(2-Phenylethyl)-(2R)-2-{[(1S)-1-((4-chlorobenzyl)-carboxamido)ethyl]carboxamido}-3-(1H-3-indolyl)propanamide]",selective BRS-3 agonists
5,"C[C@H](NC(=O)Cc1ccc2c(c1)OCO2)C(=O)N[C@H](Cc1c[nH]c2ccccc12)C(=O)NCCc1ccccc1 [Compound 5, N1-(2-Phenylethyl)-(2R)-2-{[(1S)-1-((1,3-benzodioxol-5-ylmethyl)carboxamido)ethyl]carboxamido}-3-(1H-3-indolyl)propanamide]",selective BRS-3 agonists
6,"C[C@H](NC(=O)Cc1cccnc1)C(=O)N[C@H](Cc1c[nH]c2ccccc12)C(=O)NCCc1ccccc1 [Compound 6, N1-(2-Phenylethyl)-(2R)-2-{[(1S)-1-((3-pyridyl)methylcarboxamido)ethyl]carboxamido}-3-(1H-3-indolyl)propanamide]",selective BRS-3 agonists
7,"C[C@H](NC(=O)CC1NCCc2ccccc21)C(=O)N[C@H](Cc1c[nH]c2ccccc12)C(=O)NCCc1ccccc1 (stereo partly drawn) [Compound 7, N1-(2-Phenylethyl)-(2R)-2-{[(1S)-1-((1,2,3,4-tetrahydro-1-isoquinolinyl)methylcarboxamido)ethyl]carboxamido}-3-(1H-3-indolyl)propanamide]",selective BRS-3 agonists
8,"C[C@H](NC(=O)Cc1cc2ccccc2[nH]1)C(=O)N[C@H](Cc1c[nH]c2ccccc12)C(=O)NCCc1ccccc1 [Compound 8, N1-(2-Phenylethyl)-(2R)-2-{[(1S)-1-((1H2-indolyl)methylcarboxamido)ethyl]carboxamido}-3-(1H-3-indolyl)propanamide]",selective BRS-3 agonists
9,"O=C(CNCc1ccccc1)N[C@H](Cc1c[nH]c2ccccc12)C(=O)NCCc1ccccc1 [Compound 9, N1-(2-Phenylethyl)-(2R)-2-{[(benzyl)amino]methylcarboxamido}-3-(1H-3-indolyl)propanamide] (H-[Nphe]-[dW]-NHPhenethyl)",selective BRS-3 agonists
10,"O=C(CNCc1ccc(Cl)cc1)N[C@H](Cc1c[nH]c2ccccc12)C(=O)NCCc1ccccc1 [Compound 10, N1-(2-Phenylethyl)-(2R)-2-{[(4-chlorobenzyl)amino]-methylcarboxamido}-3-(1H-3-indolyl)propanamide]",selective BRS-3 agonists
11,"O=C(CNCc1cccnc1)N[C@H](Cc1c[nH]c2ccccc12)C(=O)NCCc1ccccc1 [Compound 11, N1-(2-Phenylethyl)-(2R)-2-{[(3-pyridyl)methylamino]-methylcarboxamido}-3-(1H-3-indolyl)propanamide]",selective BRS-3 agonists
12,"O=C(CNCCc1ccccc1)N[C@H](Cc1c[nH]c2ccccc12)C(=O)NCCc1ccccc1 [Compound 12, N1-(2-Phenylethyl)-(2R)-2-{[1-(2-phenylethyl)amino]-methylcarboxamido}-3-(1H-3-indolyl)propanamide]",selective BRS-3 agonists
13,CC(NCc1ccccc1)C(=O)N[C@H](Cc1c[nH]c2ccccc12)C(=O)NCCc1ccccc1 (stereo partly shown) [Compound 13],selective BRS-3 agonists
14,"CC(NCc1ccc(Cl)cc1)C(=O)N[C@H](Cc1c[nH]c2ccccc12)C(=O)NCCc1ccccc1 (stereo partly drawn) [Compound 14, N1-(2-Phenylethyl)-(2R)-2-{[1-((4-chlorobenzyl)amino)ethyl]carboxamido}-3-(1H-3-indolyl)propanamide]",selective BRS-3 agonists
15,"CC(NCCc1ccccc1)C(=O)N[C@H](Cc1c[nH]c2ccccc12)C(=O)NCCc1ccccc1 (stereo partly drawn) [Compound 15, N1-(2-Phenylethyl)-(2R)-2-{[1-(1-(2-phenylethyl)amino)ethyl]carboxamido}-3-(1H-3-indolyl)propanamide]",selective BRS-3 agonists
16,"O=C(NNC(=O)c1ccccc1)N[C@H](Cc1c[nH]c2ccccc12)C(=O)NCCc1ccccc1 [Compound 16, N1-(2-Phenylethyl)-(2R)-2-{{N′-(benzoyl)hydrazino]carboxamido}-3-(1H-3-indolyl)propanamide]",selective BRS-3 agonists

row,Molecule,selectivity as BRS-3 agonist
1,"O=C(NNC(=O)c1ccc(Cl)cc1)N[C@H](Cc1c[nH]c2ccccc12)C(=O)NCCc1ccccc1 [Compound 17, N1-(2-Phenylethyl)-(2R)-2-{{N′-(4-chlorobenzoyl)-hydrazino]carboxamido}-3-(1H-3-indolyl)propanamide]",selective BRS-3 agonists
2,"O=C(Cc1cccnc1)NNC(=O)N[C@H](Cc1c[nH]c2ccccc12)C(=O)NCCc1ccccc1 [Compound 18, N1-(2-Phenylethyl)-(2R)-2-{[N′-(2-(3-pyridyl)ethanoyl)hydrazino]carboxamido}-3-(1H-3-indolyl)propanamide]",selective BRS-3 agonists
3,"O=C(CC1NCCc2ccccc21)NNC(=O)N[C@H](Cc1c[nH]c2ccccc12)C(=O)NCCc1ccccc1 (stereo partly drawn) [Compound 19, N1-(2-Phenylethyl)-(2R)-2-{{N′-(2-(1,2,3,4-tetrahydro-1-isoquinolinyl)ethanoyl)hydrazino]carboxamido}-3-(1H-3-indolyl)propanamide]",selective BRS-3 agonists
4,"O=C(Cc1cc2ccccc2[nH]1)NNC(=O)N[C@H](Cc1c[nH]c2ccccc12)C(=O)NCCc1ccccc1 [Compound 20, N1-(2-Phenylethyl)-(2R)-2-{[N′-(2-(1H-2-indolyl)ethanoyl)hydrazino]carboxamido}-3-(1H-3-indolyl)propanamide]",selective BRS-3 agonists
5,"O=C(NN=Cc1ccccc1)N[C@H](Cc1c[nH]c2ccccc12)C(=O)NCCc1ccccc1 [Compound 21, N1-(2-Phenylethyl)-(2R)-2-{[N′-(phenylmethylene)-hydrazino]carboxamido}-3-(1H-3-indolyl)propanamide]",selective BRS-3 agonists
6,"O=C(NN=Cc1ccco1)N[C@H](Cc1c[nH]c2ccccc12)C(=O)NCCc1ccccc1 [Compound 22, N1-(2-Phenylethyl)-(2R)-2-{[N′-(furan-2-ylmethylene)hydrazino]carboxamido}-3-(1H-3-indolyl)propanamide]",selective BRS-3 agonists
7,"O=C(NNCc1ccccc1)N[C@H](Cc1c[nH]c2ccccc12)C(=O)NCCc1ccccc1 [Compound 23, N1-(2-Phenylethyl)-(2R)-2-{[N′-(benzyl)hydrazino]carboxamido}-3-(1H-3-indolyl)propanamide]",selective BRS-3 agonists
8,"O=C(NNCc1ccc(Cl)cc1)N[C@H](Cc1c[nH]c2ccccc12)C(=O)NCCc1ccccc1 [Compound 24, N1-(2-Phenylethyl)-(2R)-2-{[N′-(4-chlorobenzyl)hydrazino]carboxamido}-3-(1H-3-indolyl)propanamide]",selective BRS-3 agonists
9,"O=C(NNCc1ccco1)N[C@H](Cc1c[nH]c2ccccc12)C(=O)NCCc1ccccc1 [Compound 25, N1-(2-Phenylethyl)-(2R)-2-{[N′-(2-furylmethyl)hydrazino]carboxamido}-3-(1H-3-indolyl)propanamide]",selective BRS-3 agonists
10,O=C(CN1CCN(Cc2ccccc2)CC1)N[C@H](Cc1c[nH]c2ccccc12)C(=O)NCCc1ccccc1 [Compound 26],selective BRS-3 agonists
11,"O=C(CN1CCC(Cc2ccccc2)CC1)N[C@H](Cc1c[nH]c2ccccc12)C(=O)NCCc1ccccc1 [Compound 27, N1-(2-Phenylethyl)-(2R)-2-{[(4-benzylpiperidino)methyl]carboxamido}-3-(1H-3-indolyl)propanamide]",selective BRS-3 agonists
12,Ac-FWAV[βAla]HRW-NH2 [Compound 33],selective BRS-3 agonists
13,Ac-Phe-Trp-Ala-His(τBzl)-Nip-Gly-Arg-NH2 [Compound 31],selective BRS-3 agonists
14,Ac-Phe-Trp-Ala-His(τBzl)-βAla-His-Arg-NH2 [Compound 32],selective BRS-3 agonists
15,"[D-Tyr^6,βAla^11,Phe^13,Nle^14]Bombesin(6-14) [Compound 34]",non-selective for BRS-3 over GRP-R and NMB-R
